Laboratory results as given in US20260083865A1, “PROSTATE SPECIFIC MEMBRANE ANTIGEN (PSMA) LIGANDS AND USE THEREOF” (priority 2022, published 2026).
Like-named read-outs stand apart in the source and are kept apart here. Numbered stars: 1 amine (or outer) side, 2 acyl side, 3 side chain; on linkers, the order of the positions; unused ones are H or OH. Bridge positions count the residues as written; N and C are the ends. Square brackets hold non-standard residues; d marks the D form. Side chains are listed from the residue outwards. Peptide text beside a SMILES is read from it. * marks the point of attachment. DOTA = O=C(O)CN1CCN(CC(=O)O)CCN(CC(=O)*)CCN(CC(=O)O)CC1; Phe(4-CH2COOH) = N[C@@H](Cc1ccc(CC(=O)O)cc1)C(=O)O; Phe(4-SO3H) = N[C@@H](Cc1ccc(S(=O)(=O)O)cc1)C(=O)O; Arg(Me2a) = CN(C)C(=N)NCCC[C@H](N)C(=O)O; Phe(4-Cl) = N[C@@H](Cc1ccc(Cl)cc1)C(=O)O; X1 = O=C(CC1CCN([*:1])CC1)[*:2]; Cit = NC(=O)NCCC[C@H](N)C(=O)O; Lys(Me) = CNCCCC[C@H](N)C(=O)O; Tle = CC(C)(C)[C@H](N)C(=O)O; Pyridin(2-yl) = c1ccc(*)nc1; αMeS = C[C@](N)(CO)C(=O)O; Orn = NCCC[C@H](N)C(=O)O; Aib = CC(C)(N)C(=O)O; CO = O=C([*:1])[*:2]; Ahx = NCCCCCC(=O)O; NHBu = CCCCN*

Experiments:
[1] = target: T1, PSMA-expressing C4-2 cells (Homo sapiens, UniProt Q04609); assay: FACS binding assay (competition with 50 nM PSM-0183); conditions: C4-2 cells; for IC50: read-out: pIC50 [C4-2] CAT (converted)
T1 construct: PSMA-expressing C4-2 cells (ATCC, Cat. No. CRL-3314) were cultured in RPMI-1640; host or cells: C4-2 cells
How it was run: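 Competition format: fluorescent tracer PSM-0183 (50 nM) displaced from PSMA on C4-2 cells by a test compound titration over 1 h at 4 °C. Bound tracer was quantified as flow-cytometric AF488 median fluorescence after washing. Four-parameter logistic fits of MFI data gave IC50 and pIC50.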

[2] = target: T2, Fc-fusion protein of human PSMA (hPSMA-Fc) (Homo sapiens, UniProt Q04609); assay: Surface plasmon resonance assay (Biacore T200, single cycle kinetic); format: binding; conditions: for Kd: read-out: pKD CAT (converted)
T2 construct: purchased Acro Biosystems PSA-H5264
How it was run: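 KD, expressed as pKD, came from 1:1 Langmuir fits of reference- and buffer-blank-subtracted SPR data. The runs were single-cycle kinetics at 25° C in HBST/0.1% DMSO over human PSMA-Fc, captured to ~1000 RU on a peptide-coated CM5 surface and regenerated with 10 mM glycine pH 1.5.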

[3] = pKD category for PSMA SPR activity assay, hPSMA-Fc, 25° C.
[4] = FACS binding, competition with 50 nM PSM-0183, category
[5] = SPR, hPSMA-Fc, single cycle kinetic, 25° C., category

T2 sequence (Q04609 44-750 limits assumed): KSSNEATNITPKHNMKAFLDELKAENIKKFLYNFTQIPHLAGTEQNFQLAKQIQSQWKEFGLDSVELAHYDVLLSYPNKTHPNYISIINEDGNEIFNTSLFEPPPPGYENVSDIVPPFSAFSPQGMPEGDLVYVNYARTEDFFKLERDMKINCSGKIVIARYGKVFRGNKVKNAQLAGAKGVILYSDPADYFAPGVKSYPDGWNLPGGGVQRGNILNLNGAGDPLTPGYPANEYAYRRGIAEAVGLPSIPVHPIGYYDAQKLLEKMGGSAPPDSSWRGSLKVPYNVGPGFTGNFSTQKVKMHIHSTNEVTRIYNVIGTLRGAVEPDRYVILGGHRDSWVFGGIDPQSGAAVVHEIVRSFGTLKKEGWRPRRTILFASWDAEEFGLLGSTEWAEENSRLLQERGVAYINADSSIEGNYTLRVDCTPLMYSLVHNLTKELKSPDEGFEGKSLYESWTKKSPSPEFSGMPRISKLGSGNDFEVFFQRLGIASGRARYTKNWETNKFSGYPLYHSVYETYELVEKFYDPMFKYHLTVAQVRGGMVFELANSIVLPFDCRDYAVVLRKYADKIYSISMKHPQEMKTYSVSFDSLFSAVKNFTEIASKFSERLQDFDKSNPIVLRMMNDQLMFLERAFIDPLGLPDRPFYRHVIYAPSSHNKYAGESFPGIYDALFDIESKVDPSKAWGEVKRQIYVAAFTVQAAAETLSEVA
T1 sequence (Q04609 whole entry): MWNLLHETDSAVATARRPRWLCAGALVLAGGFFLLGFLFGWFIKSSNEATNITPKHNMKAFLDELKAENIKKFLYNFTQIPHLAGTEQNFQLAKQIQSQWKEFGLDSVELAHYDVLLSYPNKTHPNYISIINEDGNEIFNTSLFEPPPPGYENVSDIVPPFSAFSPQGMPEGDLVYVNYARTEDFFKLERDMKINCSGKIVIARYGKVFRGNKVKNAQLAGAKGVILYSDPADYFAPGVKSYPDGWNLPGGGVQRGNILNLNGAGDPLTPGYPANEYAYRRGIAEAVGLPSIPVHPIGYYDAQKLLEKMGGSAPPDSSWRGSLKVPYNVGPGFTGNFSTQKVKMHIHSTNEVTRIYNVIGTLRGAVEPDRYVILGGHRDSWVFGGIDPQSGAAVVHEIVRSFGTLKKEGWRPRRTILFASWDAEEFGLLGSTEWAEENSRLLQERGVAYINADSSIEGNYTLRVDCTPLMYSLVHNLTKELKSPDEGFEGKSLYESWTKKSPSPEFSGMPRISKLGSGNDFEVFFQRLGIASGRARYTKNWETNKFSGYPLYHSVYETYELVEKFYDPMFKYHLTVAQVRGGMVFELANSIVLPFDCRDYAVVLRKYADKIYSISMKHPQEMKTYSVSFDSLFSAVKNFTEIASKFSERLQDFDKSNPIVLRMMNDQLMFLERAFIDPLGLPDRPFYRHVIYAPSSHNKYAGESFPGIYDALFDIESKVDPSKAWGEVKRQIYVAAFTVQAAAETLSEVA

C[C@@H](O)[C@H](NC(=O)[C@@H](NC(=O)[C@@H]1CSSC[C@H](NC(=O)[C@H](Cc2ccc(CC(=O)O)cc2)NC(=O)C(C)(C)NC(=O)[C@@H](NC(=O)CC2CCN(C(=O)CN3CCN(CC(=O)O)CCN(CC(=O)O)CCN(CC(=O)O)CC3)CC2)[C@@H](C)O)C(=O)N[C@@H](CCCCN)C(=O)N[C@@H](CCCNC(=N)N)C(=O)NC(C)(C)C(=O)N[C@@H](CC(N)=O)C(=O)N1)C(C)(C)C)C(N)=O [PSM-0566, DOTA-Cmp-Thr-Aib-Fac-[Cys-Lys-Arg-Aib-Asn-Cys]-Tle-Thr-NH2] ({DOTA}-[X1]T[Aib][Phe(4-CH2COOH)]CKR[Aib]NC[Tle]T-NH2; disulfide 5-10) was tested, and the IC50 ([1]; FACS binding, category) was > 3160 nM and the Kd ([2]; PSMA SPR assay, category) was > 501 nM.
“Ac-Thr-Aib-Phe-[Cys-Lys-Arg-Aib-Asn-Cys]-Tle-Thr-Cmp-lys (InDOTA)-NH2 [PSM-0440]” was tested, and the “pIC50 [C4-2] CAT” value ([1]; pIC50 category of FACS binding) was “A (pIC50 values >6.7)” and the “pKD CAT” value [2, 3] was “A (pKD values >7.9)”.
With C[C@@H](O)[C@H](NC(=O)[C@@H](NC(=O)[C@@H]1CSSC[C@H](NC(=O)[C@H](Cc2ccc(Cl)cc2)NC(=O)C(C)(C)NC(=O)[C@@H](NC(=O)CC2CCN(C(=O)CN3CCN(CC(=O)O)CCN(CC(=O)O)CCN(CC(=O)O)CC3)CC2)[C@@H](C)O)C(=O)N[C@@H](CCCCN)C(=O)N[C@@H](CCCNC(=N)N)C(=O)N[C@@](C)(CO)C(=O)N[C@@H](CC(N)=O)C(=O)N1)C(C)(C)C)C(N)=O [PSM-0382, DOTA-Cmp-Thr-Aib-Pcf-[Cys-Lys-Arg-Ams-Asn-Cys]-Tle-Thr-NH2] ({DOTA}-[X1]T[Aib][Phe(4-Cl)]CKR[αMeS]NC[Tle]T-NH2; disulfide 5-10) the IC50 ([1]; pIC50 category of FACS binding) was < 200 nM and the Kd [2, 3] was < 12.6 nM.
For CNCCCC[C@@H]1NC(=O)[C@@H](NC(=O)[C@H](Cc2ccc(Cl)cc2)NC(=O)C(C)(C)NC(=O)[C@@H](NC(=O)CC2CCN(C(=O)CN3CCN(CC(=O)O)CCN(CC(=O)O)CCN(CC(=O)O)CC3)CC2)[C@@H](C)O)CSSC[C@@H](C(=O)N[C@H](C(=O)N[C@H](C(N)=O)[C@@H](C)O)C(C)(C)C)NC(=O)[C@H](CC(N)=O)NC(=O)C(C)(C)NC(=O)[C@H](CCCNC(=N)N(C)C)NC1=O [PSM-0247, DOTA-Cmp-Thr-Aib-Pcf-[Cys-Lys(Me)-RMe2-Aib-Asn-Cys]-Tle-Thr-NH2] ({DOTA}-[X1]T[Aib][Phe(4-Cl)]C[Lys(Me)][Arg(Me2a)][Aib]NC[Tle]T-NH2; disulfide 5-10), the IC50 [1, 4] was < 200 nM and the Kd [2, 5] was < 12.6 nM.
CCCCNC(=O)N[C@H](C(=O)NC(C)(C)C(=O)N[C@@H](Cc1ccccc1)C(=O)N[C@H]1CSSC[C@@H](C(=O)N[C@H](C(=O)N[C@H](C(=O)N2CCC(CC(=O)N[C@H](CCCCNC(=O)CN3CCN(CC(=O)O)CCN(CC(=O)O)CCN(CC(=O)O)CC3)C(N)=O)CC2)[C@@H](C)O)C(C)(C)C)NC(=O)[C@H](CC(N)=O)NC(=O)C(C)(C)NC(=O)[C@H](CCCNc2ccccn2)NC(=O)[C@H](CCCCN)NC1=O)[C@@H](C)O [PSM-0258, nBuCAyl-Thr-Aib-Phe-[Cys-Lys-Opy-Aib-Asn-Cys]-Tle-Thr-Cmp-lys(DOTA)-NH] ({NHBu-CO}-T[Aib]FCK[Orn](Pyridin(2-yl))[Aib]NC[Tle]T[X1][dK](DOTA)-NH2; disulfide 4-9) gave an IC50 [1, 4] of 200 to 1260 nM and a Kd [2, 5] of 126 to 501 nM.
CC(=O)N[C@H](C(=O)NC(C)(C)C(=O)N[C@@H](Cc1ccccc1)C(=O)N[C@H]1CSSC[C@@H](C(=O)N[C@H](C(=O)N[C@H](C(N)=O)[C@@H](C)O)C(C)(C)C)NC(=O)[C@H](CC(N)=O)NC(=O)[C@H](CCCCNC(=O)CCCCCNC(=O)CN2CCN(CC(=O)O)CCN(CC(=O)O)CCN(CC(=O)O)CC2)NC(=O)[C@H](CCCNC(N)=O)NC(=O)[C@H](CCCCN)NC1=O)[C@@H](C)O [PSM-0582, Ac-Thr-Aib-Phe-[Cys-Lys-Arg-Lys(DOTA-Ahx)-Asn-Cys]-Tle-Thr-NH2] (Ac-T[Aib]FCK[Cit]K([Ahx-DOTA])NC[Tle]T-NH2; disulfide 4-9) was tested, and the IC50 ([1]; FACS binding, category) was < 200 nM and the Kd ([2]; PSMA SPR assay, category) was < 12.6 nM.
With C[C@@H](O)[C@H](NC(=O)[C@@H](NC(=O)[C@@H]1CSSC[C@H](NC(=O)[C@H](Cc2ccc(S(=O)(=O)O)cc2)NC(=O)C(C)(C)NC(=O)[C@@H](NC(=O)CC2CCN(C(=O)CN3CCN(CC(=O)O)CCN(CC(=O)O)CCN(CC(=O)O)CC3)CC2)[C@@H](C)O)C(=O)N[C@@H](CCCCN)C(=O)N[C@@H](CCCNC(=N)N)C(=O)NC(C)(C)C(=O)N[C@@H](CC(N)=O)C(=O)N1)C(C)(C)C)C(N)=O [PSM-0386, DOTA-Cmp-Thr-Aib-Fso-[Cys-Lys-Arg-Aib-Asn-Cys]-Tle-Thr-NH2] ({DOTA}-[X1]T[Aib][Phe(4-SO3H)]CKR[Aib]NC[Tle]T-NH2; disulfide 5-10) the IC50 ([1]; pIC50 category of FACS binding) was > 3160 nM and the Kd [2, 3] was > 501 nM.
